Data on 4 compounds can be found in patent EP3446753B1, “NEW THERAPEUTIC USES OF PEPTIDES OF THE ADIPOKINETIC HORMONE FAMILY” (Mutlu, Oguz, priority 2017, dated 2019).

Counter-ions that a name gives are not always drawn. Square brackets hold non-standard residues; d marks the D form. Peptide text beside a SMILES is read from it. pGlu = O=C1CC[C@@H](C(=O)O)N1

Assay [1] concerns Emperor dragonfly, Anax imperator. The settings on record: low concentrations of the synthetic peptide injected into the Emperor dragonfly; cited from earlier work.
In a further assay the test system is Long Evans rats. Description: Active Allothetic Place Avoidance test (AAPA), MK-801 model. Type of assay: in vivo. The settings on record: for MK-801 (0.15 mg/kg) induced cognitive memory impairment effects: peptide 2 mg/kg administered subchronically + MK-801 0.15 mg/kg, summary statement; for reversal of MK-801 increased locomotion (total distance (m) moved) / reversal of MK-801 decreased maximum time of avoidance (s) / reversal of MK-801 increased number of entries to the shock sector / reversal of MK-801 increased number of shocks: peptide 2 mg/kg i.p. + MK-801 0.15 mg/kg i.p., compared to MK-801 alone; for reversal of MK-801 increased locomotion (total distance (m) moved): 4 days (subchronically). The method, then:
3-4 month-old male rats of the Long Evans strain were used for the Active Allothetic Place Avoidance test and were obtained from the accredited breeding colony of the Institute of Physiology, Academy of Science, Prague. Rats were acclimatised for 7-10 days prior to testing, during which they were weighed twice and handled four times. Rats were housed in pairs in transparent plastic cages (30×30×40 cm) in an air-conditioned animal room with a constant temperature of 21 °C and with 12/12 light/dark cycle (lights on at 7:00). All animals received food and water ad libitum. All experiments respected the Guidelines of the European Union (86/609/EU) and the National Committee for the Care and Use of Laboratory Animals (Czech Republic) and were approved by the committee under the number: MEYSCR-27527/2012-31.
In the Active Allothetic Place Avoidance test, Long Evans rats were treated with Ani-AKH (1 and 2 mg/kg) (n=8), Lia-AKH (1 and 2 mg/kg) (n=8), Pht-HrTH (1 and 2 mg/kg) (n=8), MK-801 (0.15 mg/kg) (n=8), Ani-AKH (2 mg/kg)+MK-801 (0.15 mg/kg) (n=8), Lia-AKH (2 mg/kg)+MK-801 (0.15 mg/kg) (n=8), Pht-HrTH (2 mg/kg)+MK-801 (0.15 mg/kg) (n=8) or vehicle (control group=saline with 15% DMSO) (n= 8) for 4 days (subchronically). Ani-AKH, Lia-AKH and Pht-HrTH were administered intraperitoneally (i.p.) 60 min. before the Active Allothetic Place Avoidance test while MK-801 was administered (i.p.) 40 min. before the test in a volume of 2ml/kg body weight. Separate group of animals were used in each test. The doses of the drugs were chosen according to the previous studies (Mutlu et al. 2016).
(+)-MK-801 maleate ((5S,10R)-(+)-5-methyl-10,11-dihydro-5H-dibenzo(a, d)-cyclo-hepten-5,10-imine maleate) was obtained from Tocris Bioscience, United Kingdom. Anax imperator AKH (Ani-AKH), Libellula auripennis AKH (Lia-AKH) and Phormia-Terra hypertrehalosemic hormone (Pht-HrTH) were purchased from TRC (Toronto/Canada). MK-801 was dissolved in saline while AKH was dissolved in saline mixed with 15% DMSO. Saline with 15% DMSO was used as control group.
The Active Allothetic Place Avoidance Test is a spatial memory test that can determine the ability of animals to organize their behavior efficiently in both normal and pathological conditions. Successful performance in the test requires the rat to solve a conflict between two discordant subsets of spatial stimuli (extramaze and intramaze cues). It is believed that successful performance in the Active Allothetic Place Avoidance Test, where the rat has to differentiate between relevant and irrelevant stimuli, depends on the mode of information processing disturbed in schizophrenic patients (Bubenikova-Valesova et al., 2008b). The Active Allothetic Place Avoidance arena was described in detail in previous papers (Cimadevilla et al., 2001). Briefly, it consisted of a smooth metallic circular arena (82 cm in diameter), enclosed by a 30 cm high transparent Plexiglas wall. The arena was elevated 1 m above the floor of 4×5 m experimental room containing an abundance of extramaze landmarks. The arena together with the wall was rotated (1 rpm) by an electric motor placed underneath the arena disc. At the beginning of each training session, a rat was placed in the arena at a location opposite an imperceptible 60° to-be- avoided sector (shock sector), which was defined by the computer- based tracking system (iTrack, Biosignal Group, USA), located in an adjacent room. The arena rotation started immediately after placement of the rat. The location of the shock sector could be determined solely by its spatial relation to the distal orienting cues located in the room. Rats were wearing a light latex harness, to which an infrared light-emitting diode (LED) was attached between the rat's shoulders. Whenever the rat entered the to-be-avoided sector for more than 500 ms (millisecond), the tracking system delivered a mild, constant-current shock (50 Hz, 0.5 s, 0.4-0.7 mA) and counted an entrance. […]

Where [2] appears, read: MK-801 0.15 mg/kg i.p. alone, 4 days, compared to control.

Consider `CC(C)[C@H](NC(=O)[C@@H]1CCC(=O)N1)C(=O)N[C@@H](CC(N)=O)C(=O)N[C@@H](Cc1ccccc1)C(=O)N[C@@H](CO)C(=O)N1CCC[C@H]1C(=O)N[C@@H](CO)C(=O)N[C@@H](Cc1c[nH]c2ccccc12)C(N)=O` [Ani-AKH, 5-oxo-L-prolyl-L-valyl-L-asparaginyl-L-phenylalanyl-L-seryl-L-prolyl-L-seryl-L-Tryptophanamide] ([pGlu]VNFSPSW-NH2), for which the haemolymph lipid concentration entry in assay [1] is reported as “increased the haemolymph lipid concentration”. In the assay on Long Evans rats, the “MK-801 (0.15 mg/kg) induced cognitive memory impairment effects” value is reported as “reverse” and the “reversal of MK-801 increased locomotion (total distance (m) moved)” value (shortened to “reversal of MK-801 increased locomotion”) is “significantly reversed”. In addition, in the assay with Long Evans rats (4 days), the “reversal of MK-801 decreased maximum time of avoidance (s)” value is recorded as “significantly reversed this effect”, the “reversal of MK-801 increased number of entries to the shock sector” value is “significantly reversed this effect” and the “reversal of MK-801 increased number of shocks” value is listed as “significantly reversed this effect”.
Take `C[C@]12N[C@H](Cc3ccccc31)c1ccccc12` [MK-801, (5S,10R)-(+)-5-methyl-10,11-dihydro-5H-dibenzo(a, d)-cyclo-hepten-5,10-imine maleate]: in the assay with Long Evans rats (setting [2]), the “locomotion (total distance (m) moved)” value is “significantly increased locomotion”, the “maximum time of avoidance (s)” value is listed as “significantly decreased maximum time of avoidance”, the “number of entries to the shock sector” value was “significantly increased number of entries” and the number of shocks entry is recorded as “significantly increased number of shocks”.
For the compound `CC(C)C[C@H](NC(=O)[C@@H]1CCC(=O)N1)C(=O)N[C@H](C(=O)N[C@@H](Cc1ccccc1)C(=O)N[C@@H](CO)C(=O)N1CCC[C@H]1C(=O)N[C@@H](CC(=O)O)C(=O)N[C@@H](Cc1c[nH]c2ccccc12)C(N)=O)[C@@H](C)O` [Pht-HrTH, 5-oxo-L-prolyl-L-leucyl-L-threonyl-L-phenylalanyl-L-seryl-L-prolyl-L-alfa-aspartyl-L-Tryptophanamide] ([pGlu]LTFSPDW-NH2), in the assay on Long Evans rats, the “MK-801 (0.15 mg/kg) induced cognitive memory impairment effects” value was “reverse” and the “reversal of MK-801 increased locomotion” value is “no reversing effect”. Besides, in the assay with Long Evans rats (4 days), the “reversal of MK-801 decreased maximum time of avoidance (s)” value is on record as “significantly reversed this effect”, the “reversal of MK-801 increased number of entries to the shock sector” value is listed as “significantly reversed this effect” and the “reversal of MK-801 increased number of shocks” value is reported as “significantly reversed this effect”.
As for `CC(C)[C@H](NC(=O)[C@@H]1CCC(=O)N1)C(=O)N[C@@H](CC(N)=O)C(=O)N[C@@H](Cc1ccccc1)C(=O)N[C@H](C(=O)N1CCC[C@H]1C(=O)N[C@@H](CO)C(=O)N[C@@H](Cc1c[nH]c2ccccc12)C(N)=O)[C@@H](C)O` [Lia-AKH, 5-oxo-L-prolyl-L-valyl-L-asparaginyl-L-phenylalanyl-L-threonyl-L-prolyl-L-seryl-L-Tryptophanamide] ([pGlu]VNFTPSW-NH2), in the assay with Long Evans rats, the “MK-801 (0.15 mg/kg) induced cognitive memory impairment effects” value is listed as “reverse” and the “reversal of MK-801 increased locomotion” value is on record as “partial effect”. Also, in the assay on Long Evans rats (4 days), the “reversal of MK-801 decreased maximum time of avoidance (s)” value was “significantly reversed this effect”, the “reversal of MK-801 increased number of entries to the shock sector” value is “significantly reversed this effect” and the “reversal of MK-801 increased number of shocks” value is “significantly reversed this effect”.
